Reference: article PMC4262413, “Importance of Tryptophan in Transforming an Amphipathic Peptide into a Pseudomonas aeruginosa-Targeted Antimicrobial Peptide” (PLoS ONE, 2014)
Converted amounts (≈) assume the structure as drawn. Residues, ends and D or L forms follow the SMILES beside them.

Legend:
[1] = system: P. aeruginosa ATCC27853 biofilms; assay: Biofilm biomass assay and FE-SEM imaging; format: cell-based, Pseudomonas aeruginosa
Method: A static abiotic solid surface assay was used to analyze biofilm formation as described before, with minor modification. Briefly, overnight cultures of P. aeruginosa ATCC27853 were diluted 1∶100 in fresh medium, added (500 µL) to wells of 12-well culture plates, and grown for 24 h at 37°C. Planktonic cells and loosely attached cells were removed, and wells were then refilled with 500 µL of fresh broth in the absence or presence of different concentrations of peptides. After incubation the biofilms were stained with 0.1% (w/v) crystal violet. Ethanol (95%, v/v) was added to each well, and absorbance was measured at 600 nm. The experiments were done at least three times in duplicate, and the data was expressed as mean ± standard deviations.
For microscopic observation of the biofilm, sterilized coverslips were placed at the bottom of a 12-well plate. After incubation, cells were fixed with 2.5% glutaraldehyde overnight. The samples were then dehydrated through a graded series of ethanol (50%, 70%, 90%, and 100%), followed by critical–point drying, gold sputtering, and examination using an FE-SEM (Hitachi, Japan).

E. coli 25922 = assay: microbe, parasite or virus in culture; format: cell-based, Escherichia coli
Method: (§1) Minimal inhibitory concentration (MIC) assays were performed as described previously. Briefly, after incubation overnight in Mueller-Hinton (MH) broth at 37°C, the bacteria were grown to exponential growth phase and diluted to approximately 1×10^5 CFU/ml. The peptides were dissolved in 0.2% bovine serum albumin (BSA) containing 0.01% (v/v) acetic acid, and they were then added to each well of a 96-well plates at a final concentration ranging from 0.25 to 128 µM. Each well contained a total volume of 100 µL (50 µL of inoculums and 50 µL of peptide-containing solution). The MICs were determined as the lowest concentration of peptide that prevented visible turbidity by visual inspection after incubation at 37°C for 16–18 h. Independent experiments were carried out at least three times. Uninoculated MH broth was used as a negative control and cultures without added peptides served as the positive control. Minimal bactericidal concentration (MBC) assay was performed following MIC assay. At the end of MIC assay 10 µL aliquots of the medium were taken from peptide-containing wells with no visible bacterial growth. These are plated on MH agar, incubated for 18 h to allow colony growth. The MBC was defined as the lowest peptide concentration resulting in no bacterial growth in the media. Each assay was performed at least three times.

S. typhimurium 7731 = assay: microbe, parasite or virus in culture; format: cell-based, Salmonella typhimurium
Method: as §1

S. aureus 29213 = assay: microbe, parasite or virus in culture; format: cell-based, Staphylococcus aureus
Method: as §1

S. epidermidis 12228 = assay: microbe, parasite or virus in culture; format: cell-based, Staphyfococcus epidermidis
Method: as §1

P. aeruginosa 27853 = assay: microbe, parasite or virus in culture; format: cell-based, Pseudomonas aeruginosa
Method: as §1

P. auruginosa 10419 = assay: microbe, parasite or virus in culture; format: cell-based, Pseudomonas aeruginosa
Method: as §1

P. auruginosa 21625 = assay: microbe, parasite or virus in culture; format: cell-based, Pseudomonas aeruginosa
Method: as §1

P. auruginosa 21630 = assay: microbe, parasite or virus in culture; format: cell-based, Pseudomonas aeruginosa
Method: as §1

P. auruginosa LC = assay: microbe, parasite or virus in culture; format: cell-based, Pseudomonas aeruginosa
Method: as §1

[2] = system: P. auruginosa LCCE (ceftazidime-resistant strain); assay: microbe, parasite or virus in culture
Method: as §1
(§2) The antimicrobial activity of the RI16 and mutant peptides against Gram-negative and Gram-positive bacteria were determined.

[3] = system: P. auruginosa LCCI (ciprofloxacin-resistant strain); assay: microbe, parasite or virus in culture
Method: as §1, §2

[4] = system: P. auruginosa LCGE (gentamincin-resistant strain); assay: microbe, parasite or virus in culture
Method: as §1, §2

Female KM mice = assay: In vivo toxicity; parameters: species or system Chinese Kun Ming (KM) mice; details: intraperitoneal injection, 3, 6, 30 or 60 mg per kg of body weight, 10/group
Method: The in vivo toxicity of the peptide was also evaluated. Female KM mice (weighing 20 to 25 g) were injected intraperitoneally with 0.1 ml saline and 3, 6, 30, and 60 mg peptide per kg of body weight. The animals (10/group) were directly inspected for adverse effects, such as weight loss, piloerection, motility and mortality for 7 days thereafter. All mice were allowed free water and a maintenance diet in a 12-hour light/dark cycle. All cages contained wood shavings and bedding. The experiment was carried out in strict accordance with the recommendations of the Guide for the Care and Use of Laboratory Animals of Northeast Agricultural University, and the study protocol was approved by Northeast Agricultural University Institutional Animal Care and Use Committee. The mice were monitored for a week and no mice died during the experiment.

LL37: the only host defense peptide encoded by the human cathelicidin gene, which eliminates bacteria by targeting membranes (LLGDFFRKSKEKIGKEFKRIVQRIKDFLRNLVPRTES; Antibacterial peptide LL-37; UniProt P49913 134-170, looked up)
Biofilm biomass of pre-formed biofilms ([1]; P. aeruginosa 27853, 24 h treatment, various concentrations, crystal violet, absorbance 600 nm, relative to untreated control, Fig. 6A): reduced
Cell densities in the biofilms (FE-SEM) ([1]; P. aeruginosa 27853 biofilms, peptides at 4×MIC, Fig. 6B): significantly reduced

CC[C@H](C)[C@H](NC(=O)[C@H](CCCCN)NC(=O)[C@H](CCCCN)NC(=O)[C@H](CC(C)C)NC(=O)[C@H](CCCNC(=N)N)NC(=O)[C@H](CCCCN)NC(=O)[C@H](CCCNC(=N)N)NC(=O)[C@H](Cc1c[nH]c2ccccc12)NC(=O)[C@H](CCCCN)NC(=O)[C@H](CCCCN)NC(=O)[C@H](CCCNC(=N)N)NC(=O)[C@H](CC(C)C)NC(=O)[C@H](CCCNC(=N)N)NC(=O)[C@H](CCCNC(=N)N)NC(=O)[C@H](Cc1ccccc1)NC(=O)[C@@H](N)CCCNC(=N)N)C(N)=O [T9W] (H-RFRRLRKKWRKRLKKI-NH2)
MIC (E. coli 25922; 25922): 64 µM (≈ 145 µg/mL)
MBC (E. coli 25922; 25922, 18 h): >128 µM
MIC (S. typhimurium 7731; 7731): 128 µM (≈ 290 µg/mL)
MBC (S. typhimurium 7731; 7731, 18 h): >128 µM
MIC (S. aureus 29213; 29213): 128 µM (≈ 290 µg/mL)
MBC (S. aureus 29213; 29213, 18 h): >128 µM
MIC (S. epidermidis 12228; 12228): 64 µM (≈ 145 µg/mL)
MBC (S. epidermidis 12228; 12228, 18 h): >128 µM
MIC (P. aeruginosa 27853; 27853): 2 µM (≈ 4.54 µg/mL)
MBC (P. aeruginosa 27853; 27853, 18 h): 2 µM (≈ 4.54 µg/mL)
MIC (P. auruginosa 10419): 4 µM (≈ 9.07 µg/mL)
MBC (P. auruginosa 10419; 18 h): 4 µM (≈ 9.07 µg/mL)
MIC (P. auruginosa 21625): 4 µM (≈ 9.07 µg/mL)
MBC (P. auruginosa 21625; 18 h): 4 µM (≈ 9.07 µg/mL)
MIC (P. auruginosa 21630): 4 µM (≈ 9.07 µg/mL)
MBC (P. auruginosa 21630; 18 h): 4 µM (≈ 9.07 µg/mL)
MIC (P. auruginosa LC): 1 µM (≈ 2.27 µg/mL)
MBC (P. auruginosa LC; 18 h): 2 µM (≈ 4.54 µg/mL)
MIC [2]: 4 µM (≈ 9.07 µg/mL)
MBC ([2]; 18 h): 8 µM (≈ 18.1 µg/mL)
MIC [3]: 2 µM (≈ 4.54 µg/mL)
MBC ([3]; 18 h): 4 µM (≈ 9.07 µg/mL)
MIC [4]: 4 µM (≈ 9.07 µg/mL)
MBC ([4]; 18 h): 8 µM (≈ 18.1 µg/mL)
Signs of toxicity (weight loss, piloerection, motility) (Female KM mice; 7 days, data not shown): no signs of toxicity
Survival (Female KM mice; at least 7 days): all survived
